# Reference: patent publication US7964625B2, “Antibiotics comprising bis(1-aryl-5-tetrazoly1)methane derivatives” (Nederlandse Organisatie Voor …, priority 2005, dated 2011)
# Like-named read-outs stand apart in the source and are kept apart here.
# Key:
# [1] = test system: S. aureus ATCC 29213; experiment: MIC test, single strain S. aureus ATCC 29213; type: cell-based; settings: for MIC: Staphylococcus aureus
# Protocol: (§1) MIC test were performed according to standard methodology: M7-A6-“Methods for Dilution Antimicrobial Susceptibility Tests for Bacteria That Grow Aerobically”; Approved Standard, Sixth Edition Clinical and Laboratory Standards Institute 2005 (CLSI/formerly NCCLS).
# (§2) Table II lists the results of 6 different compounds according to Formula (I) on single strains of S. aureus as MIC values expressed in micrograms per milliliter.
# (§3) Table IV lists additional MIC data on single strains of S. aureus as MIC values expressed in micrograms per milliliter. Again BAS 00160352 (NewCo003) is tested, next to its monochloric pendant (NewCo0030) and several of the new compounds of Table I. Some of the experiments were carried out in duplicate. Strains TTC03.0236 and TTC03.0239 are two MRSA strains obtained from the Utrecht University Medical Centre (UMC 01-8756/140 and UMC 03-543155, respectively). Several of the new compounds of Table I appear to be at least as active as NewCo003.
# [2] = test system: S. aureus TTC03.0236; experiment: MIC test, single strain S. aureus TTC03.0236 (MRSA); type: cell-based; settings: Table IV, MRSA strain UMC 01-8756/140, some in duplicate
# Protocol: as §1, §3
# [3] = test system: S. aureus TTC03.0239; experiment: MIC test, single strain S. aureus TTC03.0239 (MRSA); type: cell-based; settings: Table IV, MRSA strain UMC 03-543155, some in duplicate
# Protocol: as §1, §3
# [4] = Observation for adverse side effects after i.v. injection in infected mice; type: in vivo; settings: mouse, i.v., 0.05, 0.5 or 5.0 mg/kg in DMSO
# Protocol: (§4) The test substances were administered as a solution in dimethylsulfoxide (DMSO). The test substance was administered as 20 μl injections per mouse at all dose levels. Vancomycin was used as positive control and injected intravenously as a 10 mg/ml solution in DMSO (20 μl per mouse). Fresh dilutions of the test substance in vehicle were provided, stored at 2-8° C., and used within 18 hours after preparation. Shortly before injection the test substance was warmed to room temperature.
# (§5) The mice were injected i.m. with 22E05 MRSA 2141 bacteria, strain 2141 in the right thigh muscle, followed one day later by an i.v. injection of the test compound, vancomycin or vehicle in the tail vein. 24 hours later mice were sacrificed, blood was collected by heart puncture and the right thigh muscle was removed. Plasma was prepared from blood samples and stored at −80°±10° C. for possible future analysis. Thigh muscles were weighted and homogenized using an Ultra-Turrax® and dilutions of the homogenate were prepared in saline. Limiting dilutions were plated onto agar plates and two days later the number of MRSA 2141 CFU were determined for each individual mouse as an indication of bactericidal activity of the compound. […] In vivo antibiotic activity is determined by a CFU reduction of >90% (1 log reduction) in comparison to the negative control (vehicle only).
# [5] = test system: MRSA 2141; experiment: Local thigh muscle infection with MRSA 2141 in the mouse, CFU outgrowth; type: in vivo; settings: for Reduction of MRSA 2141 CFU in thigh muscle: 24 hours after dosing, vs vehicle
# Protocol: The purpose of this study was to investigate the antibiotic efficacy of different doses of compound BAS00160352 (NewCo003) against a local infection with MRSA 2141 in the mouse. Thirty mice were treated intravenously with 0.05, 0.5 or 5.0 mg/kg body weight, respectively. Outgrowth of the infection was used to establish drug efficacy.
# For each administered dose the appropriate stock solution was made as a 1 ml aliquot of the test substance in the vehicle (DMSO). The stock solutions were stored at 2-8° C. for 16 hours.
# as §4
# as §5, with “compound. Additionally, tests were performed to determine if the bacteria used are still oxacillin resistant Staphylococcus aureus. This was done before injection and on pooled thigh muscle isolates per group.” for “compound.”, “only). […]” for “only).”
# [6] = test system: S. aureus strains; experiment: MIC test on multiple strains of S. aureus; type: cell-based; settings: for Range MIC (highest): highest value found; for Range MIC (lowest): lowest value found
# Protocol: as §1
# [7] = test system: S. aureus N315; experiment: MIC test, single strain S. aureus N315; type: cell-based; settings: for MIC: Staphylococcus aureus, N315, Table II; for MIC S. aureus N315: Table II
# Protocol: as §1, §2
# [8] = test system: S. aureus MW2; experiment: MIC test, single strain S. aureus MW2; type: cell-based; settings: for MIC: Staphylococcus aureus, MW2, Table II; for MIC S. aureus MW2: Table II
# Protocol: as §1, §2
# [9] = ATCC29213, Table II, single strain, read-out: MIC S. aureus ATCC 29213
# [10] = Staphylococcus aureus, 60 tested S. aureus strains, read-out: MIC 50
# [11] = Staphylococcus aureus, 60 tested S. aureus strains, read-out: MIC 90
compound,measurement,setting,value
"COc1ccc(-n2nnnc2C(Cl)(Cl)c2nnnn2-c2ccc(OC)c(Cl)c2)cc1Cl [NewCo0021, Bis-(1-m-chloro-p-methoxybenzene-5-tetrazolyl)-dichloromethane]",MIC S. aureus ATCC 29213,"[1]; Table IV, some in duplicate",1.56 micrograms per milliliter
same,MIC S. aureus TTC03.0236,[2],0.78 micrograms per milliliter
same,MIC S. aureus TTC03.0239,[3],1.56 micrograms per milliliter
"Cc1ccc(-n2nnnc2C(Cl)c2nnnn2-c2ccc(C)cc2)cc1 [NewCo005, Bis-(1-p-tolyl-5-tetrazolyl)-chloromethane]",MIC,[1]; [9],4 µg/mL
"COc1ccccc1-n1nnnc1C(Cl)(Cl)c1nnnn1-c1ccccc1OC [NewCo006, Bis-(1-o-methoxybenzene-5-tetrazolyl)-dichloromethane]",MIC S. aureus ATCC 29213,"[1]; Table II, single strain",4 micrograms per milliliter
"Fc1ccccc1-n1nnnc1C(Cl)(Cl)c1nnnn1-c1ccccc1F [NewCo0018, Bis-(1-o-fluorobenzene-5-tetrazolyl)-dichloromethane]",MIC S. aureus ATCC 29213,"[1]; Table IV, some in duplicate",1.56 micrograms per milliliter
same,MIC S. aureus TTC03.0236,[2],0.78 micrograms per milliliter
"Cc1ccccc1-n1nnnc1C(Cl)(Cl)c1nnnn1-c1ccccc1C [NewCo003, Bis-(1-o-tolyl-5-tetrazolyl)-dichloromethane]",MIC,[1]; [9],0.06 µg/mL
same,MIC,"[1]; ATCC29213, Table IV, some in duplicate, read-out: MIC S. aureus ATCC 29213",0.19 µg/mL
same,MIC S. aureus ATCC 29213,"[1]; Table IV, some in duplicate",0.1 micrograms per milliliter
same,Signs of adverse side effects during observation after injection,[4],no signs of adverse side effects were observed
same,Trend of dose-dependent efficacy,"[5]; i.v., 0.05 to 5.0 mg/kg",no significant trend of dose-dependent efficacy was observed
same,Reduction of MRSA 2141 CFU in thigh muscle,"[5]; single i.v. dose 0.05, 0.5 or 5.0 mg/kg one day after infection",Approximately 2 Log reduction
same,Range MIC (highest),[6]; 60 tested S. aureus strains,0.5 microgram/milliliter
same,Range MIC (lowest),[6]; 60 tested S. aureus strains,0.03 microgram/milliliter
same,MIC50,[6]; [10],0.06 µg/mL
same,MIC90,[6]; [11],0.12 µg/mL
same,MIC,[7],0.125 µg/mL
same,MIC,[8],0.06 µg/mL
"CN[C@H](CC(C)C)C(=O)N[C@H]1C(=O)N[C@@H](CC(N)=O)C(=O)N[C@H]2C(=O)N[C@H]3C(=O)N[C@H](C(=O)N[C@H](C(=O)O)c4cc(O)cc(O)c4-c4cc3ccc4O)[C@H](O)c3ccc(c(Cl)c3)Oc3cc2cc(c3O[C@@H]2O[C@H](CO)[C@@H](O)[C@H](O)[C@H]2O[C@H]2C[C@](C)(N)[C@H](O)[C@H](C)O2)Oc2ccc(cc2Cl)[C@H]1O [vancomycin, reference compound]",MIC,"[1]; ATCC29213, read-out: MIC S. aureus ATCC 29213, Table IV, some in duplicate",1.56 µg/mL
same,MIC S. aureus ATCC 29213,"[1]; Table IV, some in duplicate, listed as vancomycine",0.78 micrograms per milliliter
same,Reduction of MRSA 2141 CFU in thigh muscle,"[5]; positive control, single i.v. dose 10 mg/kg",Over 1 Log reduction
same,Range MIC (highest),[6]; 60 tested S. aureus strains,4 microgram/milliliter
same,Range MIC (lowest),[6]; 60 tested S. aureus strains,0.12 microgram/milliliter
same,MIC50,[6]; Staphylococcus aureus,0.5 µg/mL
same,MIC90,[6]; Staphylococcus aureus,1 µg/mL
COc1ccc(Cl)cc1-n1nnnc1C(Cl)(Cl)c1nnnn1-c1cc(Cl)ccc1OC [NewCo0022],MIC S. aureus ATCC 29213,"[1]; Table IV, some in duplicate",≦0.05 micrograms per milliliter
same,MIC S. aureus TTC03.0236,[2],0.1 micrograms per milliliter
same,MIC S. aureus TTC03.0239,[3],0.19 micrograms per milliliter
"Clc1ccc(-n2nnnc2C(Cl)(Cl)c2nnnn2-c2ccc(Cl)cc2)cc1 [NewCo001, Bis-(1-p-chlorobenzen-5-tetrazolyl)-dichloromethane]",MIC S. aureus ATCC 29213,"[1]; Table II, single strain",16 micrograms per milliliter
same,MIC50,[6]; 60 tested S. aureus strains,4 microgram/milliliter
same,MIC90,[6]; 60 tested S. aureus strains,16 microgram/milliliter
same,Range MIC (highest),[6]; 60 tested S. aureus strains,>32 microgram/milliliter
same,Range MIC (lowest),[6]; 60 tested S. aureus strains,1 microgram/milliliter
same,MIC S. aureus N315,[7],2 micrograms per milliliter
same,MIC S. aureus MW2,[8],32 micrograms per milliliter
"COc1ccccc1-n1nnnc1C(Cl)(Cl)c1nnnn1-c1ccccc1OC [NewCo007, Bis-(1-o-methoxybenzene-5-tetrazolyl)-dichloromethane]",MIC S. aureus ATCC 29213,"[1]; Table IV, some in duplicate",1.56 micrograms per milliliter
same,MIC S. aureus TTC03.0236,[2],1.56 micrograms per milliliter
same,MIC S. aureus TTC03.0239,[3],1.56 micrograms per milliliter
"Clc1cccc(-n2nnnc2C(Cl)(Cl)c2nnnn2-c2cccc(Cl)c2Cl)c1Cl [NewCo0023, Bis-(1-o,m-dichlorobenzene-5-tetrazolyl)-dichloromethane]",MIC S. aureus ATCC 29213,"[1]; Table IV, some in duplicate",0.19 micrograms per milliliter
same,MIC S. aureus TTC03.0236,[2],0.19 micrograms per milliliter
same,MIC S. aureus TTC03.0239,[3],0.39 micrograms per milliliter
"Cc1ccc(-n2nnnc2C(Cl)(Cl)c2nnnn2-c2ccc(C)cc2)cc1 [NewCo002, Bis-(1-p-tolyl-5-tetrazolyl)-dichloromethane]",MIC,[1]; [9],> 32 µg/mL
same,Range MIC (highest),[6]; 60 tested S. aureus strains,>32 microgram/milliliter
same,Range MIC (lowest),[6]; 60 tested S. aureus strains,0.5 microgram/milliliter
same,MIC50,[6]; [10],32 µg/mL
same,MIC90,[6]; [11],> 32 µg/mL
same,MIC,[7],4 µg/mL
same,MIC,[8],> 32 µg/mL
"ClC(Cl)(c1nnnn1-c1ccccc1)c1nnnn1-c1ccccc1 [NewCo004, Bis-(1-benzene-5-tetrazolyl)-dichloromethane]",MIC S. aureus ATCC 29213,"[1]; Table II, single strain",1 micrograms per milliliter
same,MIC50,[6]; 60 tested S. aureus strains,1 microgram/milliliter
same,MIC90,[6]; 60 tested S. aureus strains,2 microgram/milliliter
same,Range MIC (highest),[6]; 60 tested S. aureus strains,4 microgram/milliliter
same,Range MIC (lowest),[6]; 60 tested S. aureus strains,0.25 microgram/milliliter
same,MIC S. aureus N315,[7],0.25 micrograms per milliliter
same,MIC S. aureus MW2,[8],1 micrograms per milliliter
